Read-outs that look alike come from different tables or passages of the source.
What was measured:
Assay in all cases: Kinase selectivity, P33-radiolabeled assay
Assay type in all cases: biochemical
Details in all cases: 10 μM ATP
[1] = molecular target: T1, p70S6K/RPS6KB1 (Homo sapiens, UniProt P23443)
T1 construct: purchased Reaction Biology Corp
Outline: (§1)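 Each enzyme was exposed to 10 μM compound, with duplicate measurements, in reactions containing 10 μM ATP. Numbers are remaining activity as a percent of the vehicle (DMSO) signal.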

[2] = molecular target: T2, PKN1/PRK1 (Homo sapiens, UniProt Q16512)
T2 construct: purchased Reaction Biology Corp
Outline: as §1

[3] = molecular target: T3, ALK2/ACVR1 (Homo sapiens, UniProt Q04771)
T3 construct: purchased Reaction Biology Corp
T3 sequence (Q04771 21-509): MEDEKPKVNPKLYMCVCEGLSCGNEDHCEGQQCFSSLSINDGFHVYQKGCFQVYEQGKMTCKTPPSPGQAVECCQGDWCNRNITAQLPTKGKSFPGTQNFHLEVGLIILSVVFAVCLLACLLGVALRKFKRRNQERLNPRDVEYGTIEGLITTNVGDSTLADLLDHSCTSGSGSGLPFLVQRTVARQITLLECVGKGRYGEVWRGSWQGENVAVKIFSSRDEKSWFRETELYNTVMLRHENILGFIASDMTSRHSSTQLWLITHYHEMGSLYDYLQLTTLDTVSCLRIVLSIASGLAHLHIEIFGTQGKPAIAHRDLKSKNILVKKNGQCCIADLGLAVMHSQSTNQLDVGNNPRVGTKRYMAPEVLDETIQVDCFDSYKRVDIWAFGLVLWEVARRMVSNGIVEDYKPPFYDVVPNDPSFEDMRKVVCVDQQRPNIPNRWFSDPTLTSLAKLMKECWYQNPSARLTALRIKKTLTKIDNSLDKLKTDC
Outline: as §1

[4] = molecular target: T4, MLK1/MAP3K9 (Homo sapiens, UniProt P80192)
T4 construct: purchased Reaction Biology Corp
Outline: as §1

[5] = molecular target: T5, TRKB (Homo sapiens, UniProt Q16620)
T5 construct: purchased Reaction Biology Corp
Outline: as §1

[6] = molecular target: T6, MLK2/MAP3K10 (Homo sapiens, UniProt Q02779)
T6 construct: purchased Reaction Biology Corp
Outline: as §1

[7] = molecular target: T7, PAK1 (Homo sapiens, UniProt Q13153)
T7 construct: purchased Reaction Biology Corp
Outline: as §1

[8] = molecular target: T8, TNK1 (Homo sapiens, UniProt Q13470)
T8 construct: purchased Reaction Biology Corp
T8 sequence (Q13470 1-666): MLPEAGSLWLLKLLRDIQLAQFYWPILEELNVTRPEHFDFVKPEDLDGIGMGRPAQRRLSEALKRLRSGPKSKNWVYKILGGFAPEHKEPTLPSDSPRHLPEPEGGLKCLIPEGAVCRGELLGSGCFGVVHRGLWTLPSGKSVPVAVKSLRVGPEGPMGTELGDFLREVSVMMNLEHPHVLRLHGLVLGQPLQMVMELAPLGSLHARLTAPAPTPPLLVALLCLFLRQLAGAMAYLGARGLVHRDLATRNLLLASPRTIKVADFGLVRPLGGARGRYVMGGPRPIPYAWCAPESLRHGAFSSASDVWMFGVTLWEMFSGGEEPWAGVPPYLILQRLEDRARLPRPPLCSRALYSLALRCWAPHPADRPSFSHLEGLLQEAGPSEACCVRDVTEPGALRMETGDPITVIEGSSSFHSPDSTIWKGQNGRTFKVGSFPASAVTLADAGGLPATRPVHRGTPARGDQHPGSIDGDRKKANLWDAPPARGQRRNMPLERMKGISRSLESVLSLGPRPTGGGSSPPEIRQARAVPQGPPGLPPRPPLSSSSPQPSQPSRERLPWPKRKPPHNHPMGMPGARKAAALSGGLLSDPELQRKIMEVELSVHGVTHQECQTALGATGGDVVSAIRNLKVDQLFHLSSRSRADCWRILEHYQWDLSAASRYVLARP
Outline: as §1

[9] = molecular target: T9, GRK3 (Homo sapiens, UniProt P35626)
T9 construct: purchased Reaction Biology Corp
T9 sequence (P35626 1-688): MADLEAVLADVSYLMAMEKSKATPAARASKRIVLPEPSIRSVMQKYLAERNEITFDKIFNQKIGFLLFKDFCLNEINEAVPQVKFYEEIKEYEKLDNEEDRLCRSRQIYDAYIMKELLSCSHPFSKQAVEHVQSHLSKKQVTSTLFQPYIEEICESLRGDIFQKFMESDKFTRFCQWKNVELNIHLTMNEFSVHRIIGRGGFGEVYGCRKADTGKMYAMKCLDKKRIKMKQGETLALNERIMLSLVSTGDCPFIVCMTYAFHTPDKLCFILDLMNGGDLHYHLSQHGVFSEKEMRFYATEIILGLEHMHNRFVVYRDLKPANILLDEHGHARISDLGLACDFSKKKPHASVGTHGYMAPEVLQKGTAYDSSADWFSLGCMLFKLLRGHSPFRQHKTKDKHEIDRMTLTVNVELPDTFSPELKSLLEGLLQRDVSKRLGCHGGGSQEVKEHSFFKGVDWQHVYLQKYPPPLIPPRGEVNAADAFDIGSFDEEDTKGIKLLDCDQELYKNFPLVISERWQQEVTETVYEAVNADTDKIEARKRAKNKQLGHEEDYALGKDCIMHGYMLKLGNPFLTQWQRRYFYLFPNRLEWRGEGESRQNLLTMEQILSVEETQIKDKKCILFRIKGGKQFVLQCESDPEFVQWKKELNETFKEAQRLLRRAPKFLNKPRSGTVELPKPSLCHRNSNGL
Outline: as §1

[10] = molecular target: T10, SRPK2 (Homo sapiens, UniProt P78362)
T10 construct: purchased Reaction Biology Corp
Outline: as §1

[11] = molecular target: T11, SLK/STK2 (Homo sapiens, UniProt Q9H2G2)
T11 construct: purchased Reaction Biology Corp
Outline: as §1

[12] = molecular target: T12, CK1g1 (Homo sapiens, UniProt Q9HCP0)
T12 construct: purchased Reaction Biology Corp
Outline: as §1

[13] = read-out: % Enzyme Activity (relative to DMSO controls) AVG
[14] = read-out: % Enzyme Activity (relative to DMSO controls) Data 1
[15] = read-out: % Enzyme Activity (relative to DMSO controls) Data 2

T4 sequence (P80192 whole entry): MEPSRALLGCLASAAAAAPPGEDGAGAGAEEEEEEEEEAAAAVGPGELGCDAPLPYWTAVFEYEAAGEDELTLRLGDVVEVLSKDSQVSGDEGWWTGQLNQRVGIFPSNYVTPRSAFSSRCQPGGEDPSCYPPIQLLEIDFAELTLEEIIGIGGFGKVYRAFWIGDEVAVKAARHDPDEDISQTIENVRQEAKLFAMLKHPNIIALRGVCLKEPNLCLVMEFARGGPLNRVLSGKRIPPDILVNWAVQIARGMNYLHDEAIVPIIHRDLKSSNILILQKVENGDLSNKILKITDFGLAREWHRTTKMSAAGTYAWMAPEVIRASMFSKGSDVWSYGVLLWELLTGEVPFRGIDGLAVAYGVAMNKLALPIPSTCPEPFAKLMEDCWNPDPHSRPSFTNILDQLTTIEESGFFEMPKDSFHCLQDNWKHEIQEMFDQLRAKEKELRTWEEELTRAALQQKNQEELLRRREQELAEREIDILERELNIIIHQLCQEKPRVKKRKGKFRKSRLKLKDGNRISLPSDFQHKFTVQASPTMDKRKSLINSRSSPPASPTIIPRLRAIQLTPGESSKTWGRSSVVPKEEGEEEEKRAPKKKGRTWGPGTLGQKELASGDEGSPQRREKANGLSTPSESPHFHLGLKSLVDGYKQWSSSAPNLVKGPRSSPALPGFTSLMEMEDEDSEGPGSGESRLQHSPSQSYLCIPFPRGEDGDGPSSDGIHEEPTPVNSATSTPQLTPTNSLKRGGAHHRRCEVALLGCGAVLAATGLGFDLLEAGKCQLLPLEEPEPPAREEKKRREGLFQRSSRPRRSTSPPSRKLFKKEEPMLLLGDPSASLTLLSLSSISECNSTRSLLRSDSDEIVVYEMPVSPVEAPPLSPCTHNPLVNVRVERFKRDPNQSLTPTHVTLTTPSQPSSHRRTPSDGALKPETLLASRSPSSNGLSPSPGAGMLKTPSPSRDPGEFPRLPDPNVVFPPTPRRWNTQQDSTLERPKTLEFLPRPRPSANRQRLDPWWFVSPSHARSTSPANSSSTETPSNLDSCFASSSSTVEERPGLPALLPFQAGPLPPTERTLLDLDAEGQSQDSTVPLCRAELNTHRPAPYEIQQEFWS
T6 sequence (Q02779 whole entry): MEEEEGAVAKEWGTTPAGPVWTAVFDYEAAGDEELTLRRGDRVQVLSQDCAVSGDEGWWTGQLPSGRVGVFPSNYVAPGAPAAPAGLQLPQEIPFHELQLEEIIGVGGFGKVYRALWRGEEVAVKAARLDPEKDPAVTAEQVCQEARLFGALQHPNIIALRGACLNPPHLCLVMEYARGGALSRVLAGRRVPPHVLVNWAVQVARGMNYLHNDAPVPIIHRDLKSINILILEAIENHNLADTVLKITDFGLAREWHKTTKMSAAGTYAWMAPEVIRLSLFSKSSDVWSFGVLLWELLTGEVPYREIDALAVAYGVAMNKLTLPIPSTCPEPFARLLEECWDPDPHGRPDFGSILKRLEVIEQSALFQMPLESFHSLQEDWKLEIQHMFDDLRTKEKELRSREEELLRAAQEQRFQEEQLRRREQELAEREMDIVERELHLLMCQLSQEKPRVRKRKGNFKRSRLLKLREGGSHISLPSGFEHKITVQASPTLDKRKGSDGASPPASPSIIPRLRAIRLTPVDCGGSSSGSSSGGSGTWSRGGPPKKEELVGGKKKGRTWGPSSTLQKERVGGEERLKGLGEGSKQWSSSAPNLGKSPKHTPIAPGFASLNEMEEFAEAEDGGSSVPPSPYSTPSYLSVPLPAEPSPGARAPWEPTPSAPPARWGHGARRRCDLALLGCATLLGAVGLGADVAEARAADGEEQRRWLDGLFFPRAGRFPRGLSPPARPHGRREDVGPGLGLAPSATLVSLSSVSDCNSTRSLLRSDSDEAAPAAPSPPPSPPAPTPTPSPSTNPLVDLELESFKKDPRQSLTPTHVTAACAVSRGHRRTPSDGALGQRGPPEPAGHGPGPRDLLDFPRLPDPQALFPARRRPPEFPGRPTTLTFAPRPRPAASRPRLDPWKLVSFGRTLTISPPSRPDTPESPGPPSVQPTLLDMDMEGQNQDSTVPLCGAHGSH
T2 sequence (Q16512 whole entry): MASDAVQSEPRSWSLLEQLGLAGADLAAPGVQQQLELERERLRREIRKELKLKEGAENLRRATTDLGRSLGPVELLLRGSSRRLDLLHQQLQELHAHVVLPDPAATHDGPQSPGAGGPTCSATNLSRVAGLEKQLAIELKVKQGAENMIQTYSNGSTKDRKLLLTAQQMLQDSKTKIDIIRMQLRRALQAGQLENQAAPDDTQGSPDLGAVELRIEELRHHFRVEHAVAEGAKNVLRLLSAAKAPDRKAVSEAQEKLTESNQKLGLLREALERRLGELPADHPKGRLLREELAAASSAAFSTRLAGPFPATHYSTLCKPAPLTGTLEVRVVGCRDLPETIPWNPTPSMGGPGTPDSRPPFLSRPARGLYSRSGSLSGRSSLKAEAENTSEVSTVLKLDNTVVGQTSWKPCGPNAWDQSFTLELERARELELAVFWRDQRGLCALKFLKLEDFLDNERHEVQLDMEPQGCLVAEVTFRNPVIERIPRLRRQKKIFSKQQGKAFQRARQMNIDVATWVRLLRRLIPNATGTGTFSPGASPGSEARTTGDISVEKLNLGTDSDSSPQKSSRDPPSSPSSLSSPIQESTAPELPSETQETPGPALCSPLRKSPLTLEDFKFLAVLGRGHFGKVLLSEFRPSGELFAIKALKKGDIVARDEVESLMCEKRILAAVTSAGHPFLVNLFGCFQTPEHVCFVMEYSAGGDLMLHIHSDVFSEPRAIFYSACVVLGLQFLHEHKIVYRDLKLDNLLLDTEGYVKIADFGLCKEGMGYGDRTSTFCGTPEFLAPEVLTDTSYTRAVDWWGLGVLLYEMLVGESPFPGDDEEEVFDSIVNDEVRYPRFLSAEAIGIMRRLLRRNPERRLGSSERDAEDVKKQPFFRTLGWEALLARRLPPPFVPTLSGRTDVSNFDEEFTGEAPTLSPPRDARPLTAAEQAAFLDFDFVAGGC
T11 sequence (Q9H2G2 whole entry): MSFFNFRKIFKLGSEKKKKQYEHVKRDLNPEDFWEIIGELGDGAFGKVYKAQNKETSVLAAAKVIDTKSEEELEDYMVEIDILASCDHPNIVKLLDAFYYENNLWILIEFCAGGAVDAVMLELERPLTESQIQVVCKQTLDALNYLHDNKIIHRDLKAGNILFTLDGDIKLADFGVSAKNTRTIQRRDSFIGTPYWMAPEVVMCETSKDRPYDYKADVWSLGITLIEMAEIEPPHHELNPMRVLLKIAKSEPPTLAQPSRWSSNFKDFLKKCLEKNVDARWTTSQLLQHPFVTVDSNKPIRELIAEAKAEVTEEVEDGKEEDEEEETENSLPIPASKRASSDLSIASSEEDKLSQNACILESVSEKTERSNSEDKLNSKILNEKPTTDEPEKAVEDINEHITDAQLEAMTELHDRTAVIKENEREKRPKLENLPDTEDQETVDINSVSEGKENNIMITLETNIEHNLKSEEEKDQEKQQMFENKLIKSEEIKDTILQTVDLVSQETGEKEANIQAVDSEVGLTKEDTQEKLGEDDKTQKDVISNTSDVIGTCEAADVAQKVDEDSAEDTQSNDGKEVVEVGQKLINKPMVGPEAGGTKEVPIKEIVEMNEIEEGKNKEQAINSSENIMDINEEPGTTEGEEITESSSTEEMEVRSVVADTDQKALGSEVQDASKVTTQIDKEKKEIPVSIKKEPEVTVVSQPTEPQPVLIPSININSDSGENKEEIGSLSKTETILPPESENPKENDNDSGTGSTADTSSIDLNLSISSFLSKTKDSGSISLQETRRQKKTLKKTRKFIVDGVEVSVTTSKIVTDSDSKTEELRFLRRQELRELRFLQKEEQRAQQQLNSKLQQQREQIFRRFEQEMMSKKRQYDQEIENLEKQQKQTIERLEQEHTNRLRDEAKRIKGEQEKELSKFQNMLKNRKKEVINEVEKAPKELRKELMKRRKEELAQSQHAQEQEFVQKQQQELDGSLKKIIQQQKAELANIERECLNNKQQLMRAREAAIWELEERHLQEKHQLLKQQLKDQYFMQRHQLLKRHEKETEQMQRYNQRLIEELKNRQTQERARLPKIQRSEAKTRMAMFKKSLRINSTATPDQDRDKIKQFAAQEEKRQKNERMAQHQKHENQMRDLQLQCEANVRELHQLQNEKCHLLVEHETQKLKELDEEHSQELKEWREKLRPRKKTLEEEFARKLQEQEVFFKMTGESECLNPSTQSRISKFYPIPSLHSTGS
T12 sequence (Q9HCP0 whole entry): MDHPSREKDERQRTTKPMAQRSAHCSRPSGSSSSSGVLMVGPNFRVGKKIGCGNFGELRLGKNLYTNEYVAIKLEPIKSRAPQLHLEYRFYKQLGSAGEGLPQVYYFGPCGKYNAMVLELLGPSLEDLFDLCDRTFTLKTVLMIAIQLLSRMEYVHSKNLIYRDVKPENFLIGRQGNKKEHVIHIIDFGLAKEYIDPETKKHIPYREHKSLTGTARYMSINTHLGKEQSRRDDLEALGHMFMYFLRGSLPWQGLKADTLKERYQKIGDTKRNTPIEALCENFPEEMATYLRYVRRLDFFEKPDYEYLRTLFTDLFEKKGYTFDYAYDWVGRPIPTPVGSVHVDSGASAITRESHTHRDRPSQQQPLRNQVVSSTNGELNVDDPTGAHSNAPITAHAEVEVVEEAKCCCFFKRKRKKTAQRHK

## CC(C)(C)C(=O)N1N=CC[C@H]1c1ccccc1 [GSK′963]
[1]; [13]
  remaining activity at 10 µM: 99.1%
[1]; [14]
  remaining activity at 10 µM: 97.4%
[1]; [15]
  remaining activity at 10 µM: 101%
[2]; [13]
  remaining activity at 10 µM: 103%
[2]; [14]
  remaining activity at 10 µM: 104%
[2]; [15]
  remaining activity at 10 µM: 102%
[3]; [13]
  remaining activity at 10 µM: 98.1%
[3]; [14]
  remaining activity at 10 µM: 94%
[3]; [15]
  remaining activity at 10 µM: 102%
[4]; [13]
  remaining activity at 10 µM: 110%
[4]; [14]
  remaining activity at 10 µM: 108%
[4]; [15]
  remaining activity at 10 µM: 112%
[5]; [13]
  remaining activity at 10 µM: 101%
[5]; [14]
  remaining activity at 10 µM: 101%
[5]; [15]
  remaining activity at 10 µM: 100%
[6]; [13]
  remaining activity at 10 µM: 99.4%
[6]; [14]
  remaining activity at 10 µM: 98.6%
[6]; [15]
  remaining activity at 10 µM: 100%
[7]; [13]
  remaining activity at 10 µM: 92.8%
[7]; [14]
  remaining activity at 10 µM: 92.5%
[7]; [15]
  remaining activity at 10 µM: 93%
[8]; [13]
  remaining activity at 10 µM: 98.8%
[8]; [14]
  remaining activity at 10 µM: 100%
[8]; [15]
  remaining activity at 10 µM: 97.2%
[9]; [13]
  remaining activity at 10 µM: 97.9%
[9]; [14]
  remaining activity at 10 µM: 98.1%
[9]; [15]
  remaining activity at 10 µM: 97.6%
[10]; [13]
  remaining activity at 10 µM: 102%
[10]; [14]
  remaining activity at 10 µM: 102%
[10]; [15]
  remaining activity at 10 µM: 102%
[11]; [13]
  remaining activity at 10 µM: 86.9%
[11]; [14]
  remaining activity at 10 µM: 85.3%
[11]; [15]
  remaining activity at 10 µM: 88.5%
[12]; [13]
  remaining activity at 10 µM: 108%
[12]; [14]
  remaining activity at 10 µM: 111%
[12]; [15]
  remaining activity at 10 µM: 105%

— publication PMC4979471 (Cell Death Discovery, 2015)
